From PubChem BioAssay (NCI)
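Cells were grown in 96-well plates and exposed to each compound for 48 hours at five concentrations; endpoints were interpolated linearly between bracketing concentrations, or set to the highest concentration if not reached. The concentration for full growth arrest is given as TGI.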

Tests used:
Assay in all cases: inhibition of tumour cell growth, NCI panel, 48 h
SK-MEL-2 melanoma = test system: SK-MEL-2 melanoma
HCC-2998 colon = test system: HCC-2998 colon
ACHN renal = test system: ACHN renal
MALME-3M melanoma = test system: MALME-3M melanoma
COLO 205 colon = test system: COLO 205 colon
OVCAR-5 ovarian = test system: OVCAR-5 ovarian
RXF 393 renal = test system: RXF 393 renal
U251 CNS = test system: U251 CNS
HT29 colon = test system: HT29 colon
NCI-H23 lung = test system: NCI-H23 lung
MOLT-4 leukemia = test system: MOLT-4 leukemia
SN12C renal = test system: SN12C renal
NCI-H460 lung = test system: NCI-H460 lung
HCT-15 colon = test system: HCT-15 colon
A549 NSCLC = test system: A549 NSCLC
SNB-78 CNS = test system: SNB-78 CNS
A498 renal = test system: A498 renal
786-0 renal = test system: 786-0 renal
EKVX NSCLC = test system: EKVX NSCLC
DMS 114 small cell lung = test system: DMS 114 small cell lung
LOX IMVI melanoma = test system: LOX IMVI melanoma
IGROV1 ovarian = test system: IGROV1 ovarian
HOP-62 NSCLC = test system: HOP-62 NSCLC
UO-31 renal = test system: UO-31 renal
KM12 colon = test system: KM12 colon
SK-MEL-28 melanoma = test system: SK-MEL-28 melanoma
SF-539 CNS = test system: SF-539 CNS
SF-268 CNS = test system: SF-268 CNS
CAKI-1 renal = test system: CAKI-1 renal
SNB-75 CNS = test system: SNB-75 CNS
SW-620 colon = test system: SW-620 colon
HCT-116 colon = test system: HCT-116 colon
TK-10 renal = test system: TK-10 renal
OVCAR-3 ovarian = test system: OVCAR-3 ovarian
HL-60(TB) leukemia = test system: HL-60(TB) leukemia
UACC-62 melanoma = test system: UACC-62 melanoma
SF-295 CNS = test system: SF-295 CNS
OVCAR-8 ovarian = test system: OVCAR-8 ovarian
RPMI-8226 leukemia = test system: RPMI-8226 leukemia
HOP-92 NSCLC = test system: HOP-92 NSCLC
NCI-H226 lung = test system: NCI-H226 lung
DLD-1 colon = test system: DLD-1 colon
M14 melanoma = test system: M14 melanoma
UACC-257 melanoma = test system: UACC-257 melanoma
SK-OV-3 ovarian = test system: SK-OV-3 ovarian
K-562 leukemia = test system: K-562 leukemia
M19-MEL melanoma = test system: M19-MEL melanoma
SK-MEL-5 melanoma = test system: SK-MEL-5 melanoma
KM20L2 colon = test system: KM20L2 colon
LXFL 529 NSCLC = test system: LXFL 529 NSCLC
SNB-19 CNS = test system: SNB-19 CNS
DMS 273 small cell lung = test system: DMS 273 small cell lung
SR leukemia = test system: SR leukemia
MCF7 breast = test system: MCF7 breast
OVCAR-4 ovarian = test system: OVCAR-4 ovarian
NCI/ADR-RES ovarian = test system: NCI/ADR-RES ovarian
MDA-MB-435 = test system: MDA-MB-435
CCRF-CEM leukemia = test system: CCRF-CEM leukemia
DU-145 prostate = test system: DU-145 prostate
BT-549 breast = test system: BT-549 breast
T-47D breast = test system: T-47D breast
MDA-MB-231 breast = test system: MDA-MB-231 breast
NCI-H522 lung = test system: NCI-H522 lung
HS 578T breast = test system: HS 578T breast
PC-3 prostate = test system: PC-3 prostate
MDA-N = test system: MDA-N

## Cc1nc(-c2nc(C)c(C(=O)/C=C/c3ccc([N+](=O)[O-])cc3)s2)sc1C(=O)/C=C/c1ccc([N+](=O)[O-])cc1
SK-MEL-2 melanoma
  TGI: > 100 µM
HCC-2998 colon
  TGI: > 100 µM
ACHN renal
  TGI: > 100 µM
MALME-3M melanoma
  TGI: > 100 µM
COLO 205 colon
  TGI: > 100 µM
OVCAR-5 ovarian
  TGI: > 100 µM
RXF 393 renal
  TGI: > 100 µM
U251 CNS
  TGI: > 100 µM
HT29 colon
  TGI: > 100 µM
NCI-H23 lung
  TGI: > 100 µM
MOLT-4 leukemia
  TGI: > 100 µM
SN12C renal
  TGI: > 100 µM
NCI-H460 lung
  TGI: > 100 µM
HCT-15 colon
  TGI: > 100 µM
A549 NSCLC
  TGI: > 100 µM
SNB-78 CNS
  TGI: > 100 µM
A498 renal
  TGI: > 100 µM
786-0 renal
  TGI: > 100 µM
EKVX NSCLC
  TGI: > 100 µM
DMS 114 small cell lung
  TGI: > 100 µM
LOX IMVI melanoma
  TGI: > 100 µM
IGROV1 ovarian
  TGI: > 100 µM
HOP-62 NSCLC
  TGI: > 100 µM
UO-31 renal
  TGI: > 100 µM
KM12 colon
  TGI: > 100 µM
SK-MEL-28 melanoma
  TGI: > 100 µM
SF-539 CNS
  TGI: > 100 µM
SF-268 CNS
  TGI: > 100 µM
CAKI-1 renal
  TGI: > 100 µM
SNB-75 CNS
  TGI: > 100 µM
SW-620 colon
  TGI: > 100 µM
HCT-116 colon
  TGI: > 100 µM
TK-10 renal
  TGI: > 100 µM
OVCAR-3 ovarian
  TGI: > 100 µM
HL-60(TB) leukemia
  TGI: > 100 µM
UACC-62 melanoma
  TGI: > 100 µM
SF-295 CNS
  TGI: > 100 µM
OVCAR-8 ovarian
  TGI: > 100 µM
RPMI-8226 leukemia
  TGI: > 100 µM
HOP-92 NSCLC
  TGI: > 100 µM
NCI-H226 lung
  TGI: > 100 µM
DLD-1 colon
  TGI: > 100 µM
M14 melanoma
  TGI: > 100 µM
UACC-257 melanoma
  TGI: > 100 µM
SK-OV-3 ovarian
  TGI: > 100 µM
K-562 leukemia
  TGI: > 100 µM
M19-MEL melanoma
  TGI: > 100 µM
SK-MEL-5 melanoma
  TGI: > 100 µM
KM20L2 colon
  TGI: > 100 µM
LXFL 529 NSCLC
  TGI: > 100 µM
SNB-19 CNS
  TGI: > 100 µM

## COc1ccc2c(c1)OCCCN(C)OC2c1ccccc1 (stereo not given)
SK-MEL-2 melanoma
  TGI: > 100 µM
HCC-2998 colon
  TGI: > 100 µM
ACHN renal
  TGI: > 100 µM
MALME-3M melanoma
  TGI: > 100 µM
COLO 205 colon
  TGI: > 100 µM
OVCAR-5 ovarian
  TGI: > 100 µM
RXF 393 renal
  TGI: > 100 µM
U251 CNS
  TGI: > 100 µM
HT29 colon
  TGI: > 100 µM
NCI-H23 lung
  TGI: > 100 µM
MOLT-4 leukemia
  TGI: > 100 µM
SN12C renal
  TGI: > 100 µM
HCT-15 colon
  TGI: > 100 µM
A549 NSCLC
  TGI: > 100 µM
SNB-78 CNS
  TGI: > 100 µM
786-0 renal
  TGI: > 100 µM
EKVX NSCLC
  TGI: > 100 µM
DMS 114 small cell lung
  TGI: > 100 µM
IGROV1 ovarian
  TGI: > 100 µM
UO-31 renal
  TGI: > 100 µM
KM12 colon
  TGI: > 100 µM
SK-MEL-28 melanoma
  TGI: > 100 µM
SF-539 CNS
  TGI: > 100 µM
SF-268 CNS
  TGI: > 100 µM
CAKI-1 renal
  TGI: > 100 µM
SNB-75 CNS
  TGI: > 100 µM
SW-620 colon
  TGI: > 100 µM
HCT-116 colon
  TGI: > 100 µM
DMS 273 small cell lung
  TGI: > 100 µM
TK-10 renal
  TGI: > 100 µM
OVCAR-3 ovarian
  TGI: > 100 µM
UACC-62 melanoma
  TGI: > 100 µM
SF-295 CNS
  TGI: > 100 µM
OVCAR-8 ovarian
  TGI: > 100 µM
RPMI-8226 leukemia
  TGI: > 100 µM
NCI-H226 lung
  TGI: > 100 µM
UACC-257 melanoma
  TGI: > 100 µM
SR leukemia
  TGI: > 100 µM
SK-OV-3 ovarian
  TGI: > 100 µM
K-562 leukemia
  TGI: > 100 µM
M19-MEL melanoma
  TGI: > 100 µM
SK-MEL-5 melanoma
  TGI: > 100 µM
KM20L2 colon
  TGI: > 100 µM
LXFL 529 NSCLC
  TGI: > 100 µM
SNB-19 CNS
  TGI: > 100 µM

## CC(C)(C)c1ccc(S(=O)(=O)N2C(c3cccc(C4CC[C@@H](C(=O)O)N4S(=O)(=O)c4ccc(C(C)(C)C)cc4)c3)CC[C@H]2C(=O)O)cc1 (stereo not given in full)
MCF7 breast
  TGI: > 100 µM
SK-MEL-2 melanoma
  TGI: > 100 µM
HCC-2998 colon
  TGI: > 100 µM
OVCAR-4 ovarian
  TGI: > 100 µM
ACHN renal
  TGI: > 100 µM
MALME-3M melanoma
  TGI: > 100 µM
NCI/ADR-RES ovarian
  TGI: > 100 µM
COLO 205 colon
  TGI: > 100 µM
OVCAR-5 ovarian
  TGI: > 100 µM
RXF 393 renal
  TGI: > 100 µM
U251 CNS
  TGI: > 100 µM
MDA-MB-435
  TGI: > 100 µM
CCRF-CEM leukemia
  TGI: > 100 µM
HT29 colon
  TGI: > 100 µM
NCI-H23 lung
  TGI: > 100 µM
DU-145 prostate
  TGI: > 100 µM
MOLT-4 leukemia
  TGI: > 100 µM
SN12C renal
  TGI: > 100 µM
NCI-H460 lung
  TGI: > 100 µM
HCT-15 colon
  TGI: > 100 µM
A549 NSCLC
  TGI: > 100 µM
A498 renal
  TGI: > 100 µM
786-0 renal
  TGI: > 100 µM
EKVX NSCLC
  TGI: > 100 µM
BT-549 breast
  TGI: > 100 µM
LOX IMVI melanoma
  TGI: > 100 µM
T-47D breast
  TGI: > 100 µM
MDA-MB-231 breast
  TGI: > 100 µM
IGROV1 ovarian
  TGI: > 100 µM
HOP-62 NSCLC
  TGI: > 100 µM
UO-31 renal
  TGI: 87.3 µM
KM12 colon
  TGI: > 100 µM
SK-MEL-28 melanoma
  TGI: > 100 µM
SF-539 CNS
  TGI: > 100 µM
SF-268 CNS
  TGI: > 100 µM
CAKI-1 renal
  TGI: > 100 µM
SNB-75 CNS
  TGI: > 100 µM
SW-620 colon
  TGI: > 100 µM
HCT-116 colon
  TGI: > 100 µM
TK-10 renal
  TGI: > 100 µM
NCI-H522 lung
  TGI: > 100 µM
OVCAR-3 ovarian
  TGI: > 100 µM
HL-60(TB) leukemia
  TGI: > 100 µM
UACC-62 melanoma
  TGI: > 100 µM
SF-295 CNS
  TGI: > 100 µM
OVCAR-8 ovarian
  TGI: > 100 µM
HS 578T breast
  TGI: > 100 µM
PC-3 prostate
  TGI: > 100 µM
MDA-N
  TGI: > 100 µM
RPMI-8226 leukemia
  TGI: > 100 µM
HOP-92 NSCLC
  TGI: > 100 µM
NCI-H226 lung
  TGI: > 100 µM
M14 melanoma
  TGI: > 100 µM
UACC-257 melanoma
  TGI: > 100 µM
SR leukemia
  TGI: > 100 µM
SK-OV-3 ovarian
  TGI: > 100 µM
K-562 leukemia
  TGI: > 100 µM
SK-MEL-5 melanoma
  TGI: > 100 µM
SNB-19 CNS
  TGI: > 100 µM
